Measured values published in patent US20230212164A1, “ANNULATED 2-AMINO-3-CYANO THIOPHENES AND DERIVATIVES FOR THE TREATMENT OF CANCER” (BOEHRINGER INGELHEIM INTERNATIONAL GMBH, priority 2020, published 2023).

What was measured:
[1] = biological target: T1, protein-protein interaction between SOS1 and KRAS G12C (Homo sapiens, UniProt P01116, C118S/C51S/C80L/G12C); assay: KRAS::SOS1 AlphaScreen binding assay
T1 construct: His6 (N)

[2] = biological target: KRASG12-dependent Ba/F3 cells (Homo sapiens, UniProt P01116, G12C, cells depend on it); assay: Ba/F3 cell model proliferation assay (AlamarBlue, 72 h); assay type: cell-based; conditions: Ba/F3 cells transduced with KRASG12C, read-out: IC50 Ba/F3 KRASG12C
Procedure: Ba/F3 Cell Model Generation and Proliferation Assay
Plasmids containing KRASG12 mutants were obtained from GeneScript. To generate KRASG12-dependent Ba/F3 models, Ba/F3 cells were transduced with retroviruses containing vectors that harbor KRASG12 isoforms. Platinum-E cells (Cell Biolabs) were used for retrovirus packaging. Retrovirus was added to Ba/F3 cells. To ensure infection, 4 μg/mL polybrene was added and cells were spinfected. […] Cells with an infection efficiency of 10% to 20% were further cultivated and puromycin selection with 1 μg/mL was initiated. As a control, parental Ba/F3 cells were used to show selection status. Selection was considered successful when parental Ba/F3 cells cultures died. To evaluate the transforming potential of KRASG12 mutations, the growth medium was no longer supplemented with IL-3. Ba/F3 cells harboring the empty vector were used as a control. Approximately ten days before conducting the experiments, puromycin was left out.
All treatments were performed in technical duplicates. The assay is run using a fully automated robotic system. Treated cells were incubated for 72 h at 37° C. with 5% CO2.
AlamarBlue™ (ThermoFisher), a viability stain, was added and fluorescence measured in the PerkinElmer Envision HTS Multilabel Reader.

[3] = system: pERK (Thr202/Tyr204) in NCI-H358_Cas9_SOS2 (SOS2 knocked); assay: ERK phosphorylation assay 2 (AlphaLISA SureFire Ultra p-ERK1/2); conditions: read-out: IC50 H358 pERK, ERK phosphorylation assay 2 (values marked with *)
Procedure: ERK Phosphorylation Assay
Low IC50 values in this assay setting are indicative of high potency of the compounds according to the invention.
GFP positive cells were collected and further expanded. These GFP-positive cell pools were single-cell diluted and SOS2 knock-out clones were identified via Western-blot and genomic DNA sequencing analysis.
Materials Used for the Assay:
AlphaLISA SureFire Ultra p-ERK1/2 (Thr202/Tyr204) Assay Kit (ALSU-PERK-A500)
Cells are seeded at 40,000 cells per well in /60 μL of RPMI with 10% FBS, non-essential amino acids, pyruvate and glutamax in Greiner TC 384 plates. The cells are incubated for 1 h at room temperature and then incubated overnight in an incubator at 37° C. and 5% CO2 in a humidified atmosphere. 60 nL compound solution (10 mM DMSO stock solution) is then added using a Labcyte Echo 550 device. After a 1 h incubation in the aforementioned incubator the medium is removed after centrifugation and the cells lysed by addition of 20 μL of 1.6-fold lysis buffer from the AlphaLISA SureFire Ultra pERK1/2 (Thr202/Tyr204) Assay Kit with added protease inhibitors, 100 nM trametinib+100 nM staurosporine. After 20 minutes of incubation at room temperature with shaking, 6 μL of each lysate sample is transferred to a 384-well Proxiplate and analyzed for pERK (Thr202/Tyr204) with the AlphaLISA SureFire Ultra pERK1/2 (Thr202/Tyr204) Assay Kit. 3 μL Acceptor Mix and 3 μL Donor Mix are added under subdued light and incubated for 2 h at room temperature in the dark, before the signal is measured on a PerkinElmer Envision HTS Multilabel Reader. The raw data were imported into and analyzed with the Boehringer Ingelheim proprietary software MegaLab (curve fitting based on the program PRISM, GraphPad Inc.).

T1 sequence (P01116 1-169 isoform P01116-2 G12C/C51S/C80L/C118S): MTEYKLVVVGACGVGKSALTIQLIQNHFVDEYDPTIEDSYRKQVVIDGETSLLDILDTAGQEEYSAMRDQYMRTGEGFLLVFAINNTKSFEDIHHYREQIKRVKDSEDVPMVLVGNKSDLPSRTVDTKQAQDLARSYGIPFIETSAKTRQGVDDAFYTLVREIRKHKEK
Sequence of KRASG12-dependent Ba/F3 cells (P01116 whole entry G12C): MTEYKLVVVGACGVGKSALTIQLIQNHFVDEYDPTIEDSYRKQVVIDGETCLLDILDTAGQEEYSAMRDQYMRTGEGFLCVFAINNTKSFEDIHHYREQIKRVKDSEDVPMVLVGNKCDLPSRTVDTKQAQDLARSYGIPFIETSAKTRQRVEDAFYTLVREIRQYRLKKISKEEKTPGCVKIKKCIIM

| IC50 ([1]; Table 36) [nM] | GI50 [2] [nM] | IC50 [3] [nM] | IC50 ([1]; Table 37) [nM] | Structure (SMILES) |
| --- | --- | --- | --- | --- |
| 1.9 | 3.3 | 1.5 |  | C=CC(=O)N1CCN(c2cc(O[C@@H](C)[C@@H]3CCCN3C)nc(-c3noc([C@@]4(C)CCCc5sc(N)c(C#N)c54)n3)c2)CC1 [Ia-26] |
| 8 | 97.6 | 21.3 |  | C=CC(=O)N1CCN(c2cc(-c3noc([C@@]4(C)CCCc5sc(N)c(C#N)c54)n3)nc(OC3CCC4CCN(C)C43)n2)CC1 (stereo partly drawn) [Ia-48] |
| 4 | 26 | 10.4 |  | C=CC(=O)N1CCN(c2cc(-c3noc([C@@]4(C)CCCc5sc(N)c(C#N)c54)n3)nc(OC3CCCC34CCCN4C)n2)CC1 (stereo partly drawn) [Ia-49] |
| 1.8 | 4.3 | 3.1 |  | C=CC(=O)N1CCN(c2cc(-c3noc([C@@]4(C)CCCc5sc(N)c(C#N)c54)n3)nc(O[C@@H](C)[C@@H]3CCCN3C)n2)C(C)C1C (stereo partly drawn) [Ia-53] |
| 2 | 24.2 | 9.8 |  | C=CC(=O)N1CC[C@H](C)N(c2cc(-c3noc([C@@]4(C)CCCc5sc(N)c(C#N)c54)n3)nc(O[C@@H](C)[C@@H]3CCCN3C)n2)CC1 [Ia-55] |
| 105 | 303 | 62.1 |  | C=CC(=O)N1[C@H](C)CN(c2cc(-c3noc([C@@]4(C)CCCc5sc(N)c(C#N)c54)n3)nc(O[C@@H](C)[C@@H]3CCCN3C)n2)C[C@H]1C [Ia-56] |
| 1.5 | 5.9 | 0.9 |  | C=CC(=O)N1CCN(c2cc(-c3noc([C@@]4(C)CCCc5sc(N)c(C#N)c54)n3)nc(O[C@@H](C)[C@@H]3CCCN3C)n2)CC12CC2 [Ia-57] |
| 319 | 3480 | 300 |  | C=CC(=O)N1CCCN(c2cc(-c3noc([C@@]4(C)CCCc5sc(N)c(C#N)c54)n3)nc(O[C@@H](C)[C@@H]3CCCN3C)n2)[C@@H](C)C1 [Ia-58] |
| 1.7 | 5.9 | 2.8 |  | C=CC(=O)N1CCN(c2cc(-c3noc([C@@]4(C)CCCc5sc(N)c(C#N)c54)n3)nc(O[C@@H](C)[C@@H]3CCCN3C)n2)C2CCCC21 (stereo partly drawn) [Ia-60] |
| 2.6 | 15 | 10.9 |  | C=CC(=O)N1CCN(c2cc(-c3noc([C@@]4(C)CCCc5sc(N)c(C#N)c54)n3)nc(O[C@@H](C)[C@@H]3CCCN3C)n2)C[C@H]1C [Ia-63] |
| 515 | 1310 | 1350 |  | C=CC(=O)N1CCN(c2cc(-c3noc([C@@]4(C)CCc5sc(N)c(C#N)c54)n3)nc(N[C@@H](C)[C@@H]3CCCN3C)n2)CC1 [Ia-132] |
| 3 | 15.4 | 5.6 |  | C=CC(=O)N1CCN(c2cc(-c3noc(C4(C)CCc5sc(N)c(C#N)c54)n3)nc(O[C@@H](C)[C@@H]3CCCN3C)n2)CC1 (stereo partly drawn) [Ia-134] |
| 2 | 25.4 | 9.6 |  | C=CC(=O)N1CCN(c2cc(-c3noc([C@@]4(C)CCCc5sc(N)c(C#N)c54)n3)nc(O[C@@H](C)[C@@H]3CCCN3C3CCN(C)CC3)n2)CC1 [Ia-135] |
| 1.4 | 2 | 0.9 |  | C=CC(=O)N1CCN(c2cc(O[C@@H](C)[C@@H]3CCCN3C)nc(-c3noc([C@@]4(C)CCCc5sc(N)c(C#N)c54)n3)n2)CC1 [Ia-136] |
| 1.8 | 0.5 | 0.7 |  | C=CC(=O)N1CCN(c2cc(-c3noc([C@@]4(C)CCCc5sc(N)c(C#N)c54)n3)nc(O[C@@H](C)[C@@H]3CC[C@H](C)N3C)n2)CC1 [Ia-137] |
| 1.5 | 2.1 | 1.4 |  | C=CC(=O)N1CCN(c2nc(O[C@@H](C)[C@@H]3CCCN3C)nc(-c3noc([C@@]4(C)CCCc5sc(N)c(C#N)c54)n3)n2)CC1 [Ia-139] |
|  | 271 | 39.8 | 10 | C/C=C/C(=O)N1CCN(c2cc(-c3noc([C@@]4(C)CCCc5sc(N)c(C#N)c54)n3)nc(O[C@@H](C)[C@@H]3CCCN3C)n2)CC1 [Ia-155] |
|  | 1520 | 238 | 16 | COC/C=C/C(=O)N1CCN(c2cc(-c3noc([C@@]4(C)CCCc5sc(N)c(C#N)c54)n3)nc(O[C@@H](C)[C@@H]3CCCN3C)n2)CC1 [Ia-157] |
|  | 467 | 103 | 4 | C[C@H](Oc1nc(-c2noc([C@@]3(C)CCCc4sc(N)c(C#N)c43)n2)cc(N2CCN(C(=O)/C=C/CN3CCOCC3)CC2)n1)[C@@H]1CCCN1C [Ia-158] |

More lines, now with the values behind:

| Structure (SMILES) | IC50 ([1]; Table 36) [nM] | GI50 [2] [nM] | IC50 [3] [nM] | IC50 ([1]; Table 37) [nM] |
| --- | --- | --- | --- | --- |
| C=CC(=O)N1CCC(Oc2cc(O[C@@H](C)[C@@H]3CCCN3C)nc(-c3noc([C@@]4(C)CCCc5sc(N)c(C#N)c54)n3)c2)CC1 [Ia-4] | 1.7 | 1 | 1.1 |  |
| C=CC(=O)N1CCN(c2cc(-c3noc([C@@]4(C)CCCc5sc(N)c(C#N)c54)n3)nc(OC3C4CC5CN(C)C3C5C4)n2)CC1 (stereo partly drawn) [Ia-50] | 11 | 496 | 121 |  |
| C=CC(=O)N1C2CCC1CN(c1cc(-c3noc([C@@]4(C)CCCc5sc(N)c(C#N)c54)n3)nc(O[C@@H](C)[C@@H]3CCCN3C)n1)C2 [Ia-59] | 3 | 32.5 | 5.5 |  |
| C=CC(=O)N1CCN(c2cc(-c3noc([C@@]4(C)CCCc5sc(N)c(C#N)c54)n3)nc(OC[C@@H]3C[C@@H]4C[C@@H]4N3C)n2)CC1 [Ia-71] | 3 | 23.7 | 21.4 |  |
| C=CC(=O)N1CCN(c2cc(-c3noc([C@@]4(C)CCCc5sc(N)c(C#N)c54)n3)nc(OC[C@@H]3CC4(CC4)CN3C)n2)CC1 [Ia-72] | 7 | 77.8 | 50.9 |  |
| C=CC(=O)N1CCC(Oc2cc(-c3noc(C4(C)CCCc5sc(N)c(C#N)c54)n3)nc(N3CCC4(CCN(C)CC4)CC3)c2)CC1 (stereo not drawn) [Ia-78] | 155 | 702 | 458 |  |
| C=CC(=O)N1CCC(Oc2cc(-c3noc([C@@]4(C)CCCc5sc(N)c(C#N)c54)n3)nc(N3CCN(C)C[C@@H]3C)c2)CC1 [Ia-79] | 4 | 7.7 | 18.7 |  |
| C=CC(=O)N1CCC(Oc2cc(-c3noc([C@]4(C)CCCc5sc(N)c(C#N)c54)n3)nc(N3CCN(C)C[C@@H]3C)c2)CC1 [Ia-80] | 507 | 559 | 1150 |  |
| C=CC(=O)N1CC[C@@H](Oc2cc(O[C@@H](C)[C@@H]3CCCN3C)nc(-c3noc([C@@]4(C)CCCc5sc(N)c(C#N)c54)n3)c2)C1 [Ia-81] | 1.6 | 1.9 | 1.7 |  |
| C=CC(=O)N1CC[C@H](Oc2cc(O[C@@H](C)[C@@H]3CCCN3C)nc(-c3noc([C@@]4(C)CCCc5sc(N)c(C#N)c54)n3)c2)C1 [Ia-82] | 2 | 17.3 | 7.7 |  |
| C=CC(=O)N1CCN(c2cc(O[C@@H](C)[C@@H]3CCCN3C)nc(-c3noc([C@@]4(C)CCCc5sc(N)c(C#N)c54)n3)c2)CC12CCC2 [Ia-83] | 2 | 7.4 | 10.2 |  |
| C=CC(=O)N1CCN(c2cc(O[C@@H](C)[C@@H]3CCCN3C)nc(-c3noc([C@@]4(C)CCCc5sc(N)c(C#N)c54)n3)c2)CC12CCCC2 [Ia-84] | 3 | 9.9 | 11 |  |
| C=CC(=O)N1C[C@H](Oc2cc(O[C@@H](C)[C@@H]3CCCN3C)nc(-c3noc([C@@]4(C)CCCc5sc(N)c(C#N)c54)n3)c2)[C@H]1C [Ia-85] | 1.6 | 0.7 | 0.7 |  |
| COC/C=C/C(=O)N1CCC(Oc2cc(O[C@@H](C)[C@@H]3CCCN3C)nc(-c3noc([C@@]4(C)CCCc5sc(N)c(C#N)c54)n3)c2)CC1 [Ia-159] |  | 16.2 | 12.4 | 5 |
